From US12629364B2, “Methods of treating cancers overexpressing CARM1 with EZH2 inhibitors and platinum-based antineoplastic drugs” (The Wistar Institute of Anatomy and Biology, priority 2016, dated 2026)

Test system: A1847 parental and CARM1 knockout cells
Test: Epigenetic targeting small molecule set screen (14-day colony formation)
Assay type: cell-based, Human
Conditions: A1847 parental vs CARM1 knockout; 14 days; normalized to vehicle
Experimental: FIG. 26 illustrates that CARM1-expressing cells are selectively sensitized to EZH2 inhibitors. Equal number of parental control or CARM1 knockout […] cells were plated and treated with each of the 23 individual epigenetic inhibitors for 14 days. The media with the inhibitors was refreshed every 3 days. Cell growth was quantified as integrated density using NIH Image J software. Quantification of the average integrated density graphed as a scatter plot. The X-axis indicates the relative growth of treated CARM1 high parental […] cells compared with DMSO vehicle controls. Y-axis indicates the relative growth of treated CARM1 knockout […] cells compared with DMSO vehicle controls. n=4; and error bars represents SEM. FIG. 27 illustrates a table of EZH2 inhibitors that are selective against CARM1 expression. CARM1-high parental controls and CARM1 knockout […] cells were treated with the indicated concentration of the small molecules in a 14-day colony formation assay. Integrated density for each well was calculated using NIH Image J software. The relative growth of the indicated cells was determined by normalizing to the vehicle control treated cells. n=4 and p-value was calculated using a two-tailed t-test. FIG. 28 illustrates representative images of colonies formed by the cells treated with the indicated inhibitors. GSK126 and UNC1999 representative positive hits from the screen. […] parental and CARM1 knockout cells were plated in 24-well plates and treated with 24 epigenetic compounds. Cell medium was changed every three days with appropriate drug doses for 14 days or until control wells became confluent. Colonies were washed twice with PBS and fixed with 10% methanol and 10% acetic acid in distilled water. Fixed colonies were stained with 0.005% crystal violet. Integrated density was measured using NIH ImageJ software as a surrogate for cell growth.

Compound	selective growth suppression of CARM1-expressing versus CARM1 KO cells
CC(=O)Nc1ccc(C(=O)Nc2ccccc2N)cc1 [CI994]	equally effective in suppressing the growth of both CARM-expressing and KO cells
CCCc1cc(C)[nH]c(=O)c1CNC(=O)c1cc(-c2ccc(N3CCN(C(C)C)CC3)nc2)cc2c1cnn2C(C)C [UNC1999, 1-isopropyl-6-(6-(4-isopropylpiperazin-1-yl)pyridin-3-yl)-N-((6-methyl-2-oxo-4-propyl-1,2-dihydropyridin-3-yl)methyl)-1H-indazole-4-carboxamide]	showed selectivity against CARM1-expressing cells
